Each compound was assayed against T1, SARS-CoV-2 PL^Pro (Severe acute respiratory syndrome coronavirus 2, UniProt P0DTD1) (assay: biochemical). Conditions: not given.
T1 construct: SARS-CoV-2 PL^Pro catalytic domain (746-1060); made in house
Compound `Cc1ccc(N2C3CCC2CNC3)cc1C(=O)NC1(c2ccc3c4c(cccc24)C(=O)N3C)CC1` [Compound P6, 5-(3,8-diazabicyclo[3.2.1]octan-8-yl)-2-methyl-N-(1-(1-methyl-2-oxo-1,2-dihydrobenzo[cd]indol-6-yl)cyclopropyl)ben zamide] has an IC50 of less than 0.04 µM. In the case of `Cc1ccc(N2C3CCC2CN(C)C3)cc1C(=O)NC1(c2ccc3c4c(cccc24)C(=O)N3C)CC1` [Compound P8, 2-Methyl-N-(1-(1-methyl-2-oxo-1,2-dihydrobenzo[cd]indol-6-yl)cyclopropyl)-3-methyl-3,8-diazabicyclo[3.2.1]octan-8-yl benzamide], the IC50 is reported as 0.1 to 1 µM. `Cc1ccc(N2CCNC3(CC3)C2)cc1C(=O)NC1(c2ccc3c4c(cccc24)C(=O)N3C)CC1` [Compound P12, 2-Methyl-N-(1-(1-methyl-2-oxo-1,2-dihydrobenzo[cd]indol-6-yl)cyclopropyl)-5-(4,7-diazaspiro[2,5]octan-7-yl) benzamide] gave an IC50 of 0.04 to 0.1 µM. `Cc1ccc(N2CC3CC(C2)N3C)cc1C(=O)NC1(c2ccc3c4c(cccc24)C(=O)N3C(C)C)CC1` [Compound P21, N-(1-(1-isopropyl-2-oxo-1,2-dihydrobenzo[cd]indol-6-yl)cyclopropyl)-2-methyl-5-(6-methyl-3,6-diazabicyclo[3.1.1]heptan-3-yl)benzamide] gave an IC50 of less than 0.04 µM.

Same assay, conditions: SARS-CoV-2 PLPro catalytic domain (746-1060), 10 minutes pre-incubation; read-out: PLpro IC50
For `Cc1ccc(N2CCN(C)CC2)cc1C(=O)NC1(c2ccc3c4c(cccc24)C(=O)N3)CC1` [Compound P2, 2-Methyl-5-(4-methylpiperazin-1-yl)-N-(1-(2-oxo-1,2-dihydrobenzo[cd]indol-6-yl)cyclopropyl)benzamide], the IC50 was 0.04 to 0.1 µM. `Cc1ccc(C2CCNCC2)cc1C(=O)NC1(c2ccc3c4c(cccc24)C(=O)N3C)CC1` [Compound P4, 2-Methyl-N-(1-(1-methyl-2-oxo-1,2-dihydrobenzo[cd]indol-6-yl)cyclopropyl)-5-(piperidin-4-yl)benzamide] showed an IC50 of 0.04 to 0.1 µM. Work on `Cc1ccc(N2CC3CNCC3C2)cc1C(=O)NC1(c2ccc3c4c(cccc24)C(=O)N3C)CC1` (centres unmarked) [Compound P9, 5-(hexahydropyrrolo[3,4-c]pyrrol-2(1H)-yl)-2-methyl-N-(1-(1-methyl-2-oxo-1,2-dihydrobenzo[cd]indol-6-yl)cyclopropyl)benzamide] yielded an IC50 of less than 0.04 µM. For `Cc1ccc(N2CCNCC2C)cc1C(=O)NC1(c2ccc3c4c(cccc24)C(=O)N3C)CC1` (centres unmarked) [Compound P10, 2-Methyl-N-(1-(1-methyl-2-oxo-1,2-dihydrobenzo[cd]indol-6-yl)cyclopropyl)-5-(2-methylpiperazin-1-yl)benzamide], the IC50 was 0.1 to 1 µM. For `Cc1ccc(N2CCC(N(C)C)CC2)cc1C(=O)NC1(c2ccc3c4c(cccc24)C(=O)N3C)CC1` [Compound P13, 5-(4-(Dimethylamino)piperidin-1-yl)-2-methyl-N-(1-(1-methyl-2-oxo-1,2-dihydrobenzo[cd]indol-6-yl)cyclopropyl)ben zamide], the IC50 was 0.1 to 1 µM. `CCN1CCN(c2ccc(C)c(C(=O)NC3(c4ccc5c6c(cccc46)C(=O)N5C)CC3)c2)C[C@@H]1C` [Compound P14, (S)-5-(4-ethyl-3-methylpiperazin-1-yl)-2-methyl-N-(1-(1-methyl-2-oxo-1,2-dihydrobenzo[cd]indol-6-yl)cyclopropyl)be nzamide] showed an IC50 of less than 0.04 µM. `Cc1ccc(-n2ccc(N(C)C)c2)cc1C(=O)NC1(c2ccc3c4c(cccc24)C(=O)N3C)CC1` [Compound P15, 5-(3-(dimethylamino)pyrrol-1-yl)-2-methyl-N-(1-(1-methyl-2-oxo-1,2-dihydrobenzo[cd]indol-6-yl)cyclopropyl)benzamide] showed an IC50 of less than 0.04 µM. Work on `Cc1ccc(N2CC(N3C=CC(F)(F)C3)C2)cc1C(=O)NC1(c2ccc3c4c(cccc24)C(=O)N3C)CC1` [Compound P18, 5-(3-(3,3-difluoropyrrol-1-yl)azetidin-1-yl)-2-methyl-N-(1-(1-methyl-2-oxo-1,2-dihydrobenzo[cd]indol-6-yl)cyclopropyl)benzamide] yielded an IC50 of 0.1 to 1 µM. With `Cc1ccc(N2C[C@H]3CN(C)C[C@H]32)cc1C(=O)NC1(c2ccc3c4c(cccc24)C(=O)N3C)CC1` [Compound P20, 2-Methyl-N-(1-(1-methyl-2-oxo-1,2-dihydrobenzo[cd]indol-6-yl)cyclopropyl)-5-((1R,5S)-3-methyl-3,6-diazabicyclo[3. 2.0]heptan-6-yl)benzamide] the IC50 was 0.1 to 1 µM. Compound `Cc1ccc(C2CCN(C)CC2)cc1C(=O)NC1(c2ccc3c4c(cccc24)C(=O)N3C)CC1` [Compound P22, 2-methyl-N-(1-(1-methyl-2-oxo-1,2-dihydrobenzo[cd]indol-6-yl)cyclopropyl)-5-(1-methylpiperidin-4-yl)benzamide] has an IC50 of 0.04 to 0.1 µM. For `Cc1ccc(N2CC(N3CCN(C)CC3)C2)cc1C(=O)NC1(c2ccc3c4c(cccc24)C(=O)N3C)CC1` [Compound P23, 2-Methyl-N-(1-(1-methyl-2-oxo-1,2-dihydrobenzo[cd]indol-6-yl)cyclopropyl)-5-(3-(4-methylpiperazin-1-yl)azetidin-1-yl)benzamide], the IC50 was 0.1 to 1 µM. Work on `Cc1ccc(N2CC(N3CCCCC3)C2)cc1C(=O)NC1(c2ccc3c4c(cccc24)C(=O)N3C)CC1` [Compound P24, 2-Methyl-N-(1-(1-methyl-2-oxo-1,2-dihydrobenzo[cd]indol-6-yl)cyclopropyl)-5-(3-(piperidin-1-yl)azetidin-1-yl)benzamide] yielded an IC50 of less than 0.04 µM. For `Cc1ccc(N2CCN3CCC[C@@H]3C2)cc1C(=O)NC1(c2ccc3c4c(cccc24)C(=O)N3C)CC1` [Compound P25, (R)-5-(hexahydropyrrolo[1,2-a]pyrazin-2(1H)-yl)-2-methyl-N-(1-(1-methyl-2-oxo-1,2-dihydrobenzo[cd]indol-6-yl)cyclopropyl)benzamide], the IC50 was less than 0.04 µM. In the case of `Cc1ccc(N2CC(N3CCC(F)CC3)C2)cc1C(=O)NC1(c2ccc3c4c(cccc24)C(=O)N3C)CC1` [Compound P26, 5-(3-(4-fluoropiperidin-1-yl)azetidin-1-yl)-2-methyl-N-(1-(1-methyl-2-oxo-1,2-dihydrobenzo[cd]indol-6-yl)cyclopropyl)benzamide], the IC50 is reported as less than 0.04 µM. Compound `CCN1C(=O)c2cccc3c(C4(NC(=O)c5cc(N6CCN(C)CC6)ccc5C)CC4)ccc1c23` [Compound P27, N-(1-(1-ethyl-2-oxo-1,2-dihydrobenzo[cd]indol-6-yl)cyclopropyl)-2-methyl-5-(4-methylpiperazin-1-yl)benzamide] has an IC50 of less than 0.04 µM. Compound `CCN1C(=O)c2cccc3c(C4(NC(=O)c5cc(N6CC(N7CCC(C)(O)CC7)C6)ccc5C)CC4)ccc1c23` [Compound P28, N-(1-(1-Ethyl-2-oxo-1,2-dihydrobenzo[cd]indol-6-yl)cyclopropyl)-5-(3-(4-hydroxy-4-methylpiperidin-1-yl)azetidin-1-yl)-2-methyl-benzamide] has an IC50 of less than 0.04 µM. `Cc1ccc(N2CC(N3CCC(F)C3)C2)cc1C(=O)NC1(c2ccc3c4c(cccc24)C(=O)N3C)CC1` (centres unmarked) [Compound P30, 5-(3-(3-fluoropyrrolidin-1-yl)azetidin-1-yl)-2-methyl-N-(1-(1-methyl-2-oxo-1,2-dihydrobenzo[cd]indol-6-yl)cyclopropyl)benzamide] showed an IC50 of less than 0.04 µM. `Cc1ccc(N2CC(N3CCC(F)(F)CC3)C2)cc1C(=O)NC1(c2ccc3c4c(cccc24)C(=O)N3C)CC1` [Compound P31, 5-(3-(4,4-difluoropiperidin-1-yl)azetidin-1-yl)-2-methyl-N-(1-(1-methyl-2-oxo-1,2-dihydrobenzo[cd]indol-6-yl)cyclopropyl)benzamide] was tested, and the IC50 was 0.04 to 0.1 µM. Compound `Cc1ccc(N2CC(N3CCC(O)CC3)C2)cc1C(=O)NC1(c2ccc3c4c(cccc24)C(=O)N3C)CC1` [Compound P32, 5-(3-(4-hydroxypiperidin-1-yl)azetidin-1-yl)-2-methyl-N-(1-(1-methyl-2-oxo-1,2-dihydrobenzo[cd]indol-6-yl)cyclopropyl)benzamide] has an IC50 of less than 0.04 µM. In the case of `Cc1ccc(N2CC(N3CCCCC3C)C2)cc1C(=O)NC1(c2ccc3c4c(cccc24)C(=O)N3C)CC1` (centres unmarked) [Compound P34, 2-Methyl-N-(1-(1-methyl-2-oxo-1,2-dihydrobenzo[cd]indol-6-yl)cyclopropyl)-5-(3-(2-methylpiperidin-1-yl)azetidin-1-yl)benzamide], the IC50 is reported as less than 0.04 µM. `Cc1ccc(N2CCC(CN3CCOCC3)CC2)cc1C(=O)NC1(c2ccc3c4c(cccc24)C(=O)N3C)CC1` [Compound P38, 2-Methyl-N-(1-(1-methyl-2-oxo-1,2-dihydrobenzo[cd]indol-6-yl)cyclopropyl)-5-(4-(morpholinomethyl)piperidin-1-yl)b enzamide] was tested, and the IC50 was 0.1 to 1 µM. With `Cc1ccc(N2CC3CCCN(C)C3C2)cc1C(=O)NC1(c2ccc3c4c(cccc24)C(=O)N3C)CC1` (centres unmarked) [Compound P39, 2-Methyl-N-(1-(1-methyl-2-oxo-1,2-dihydrobenzo[cd]indol-6-yl)cyclopropyl)-5-(1-methyloctahydro-6H-pyrrolo[3,4-b]pyridin-6-yl)benzamide] the IC50 was less than 0.04 µM.

Same assay, conditions: read-out: PLpro IC50
`Cc1ccc(N2CC3(CCN(C)C3)C2)cc1C(=O)NC1(c2ccc3c4c(cccc24)C(=O)N3C)CC1` [Compound P19] gave an IC50 of 0.1 to 1 µM. Compound `CCN1C(=O)c2cccc3c(C4(NC(=O)c5cc(N6CC7CC(C6)N7)ccc5C)CC4)ccc1c23` [Compound P29] has an IC50 of less than 0.04 µM. Work on `Cc1ccc(N2CC(N3CCOC(C)(C)C3)C2)cc1C(=O)NC1(c2ccc3c4c(cccc24)C(=O)N3C)CC1` [Compound P33, 5-(3-(2,2-dimethylmorpholinyl)azetidin-1-yl)-2-methyl-N-(1-(1-methyl-2-oxo-1,2-dihydrobenzo[cd]indol-6-yl)cyclopropyl)benzamide] yielded an IC50 of 0.1 to 1 µM. `Cc1ccc(N2CC(N3CCS(=O)(=O)CC3)C2)cc1C(=O)NC1(c2ccc3c4c(cccc24)C(=O)N3C)CC1` [Compound P35, 5-(3-(1,1-dioxothiomorpholin)azetidin-1-yl)-2-methyl-N-(1-(1-methyl-2-oxo-1,2-dihydrobenzo[cd]indol-6-yl)cyclopropyl)benzamide] was tested, and the IC50 was 0.1 to 1 µM. Compound `Cc1ccc(N2CC[C@H](N(C)C(C)C)C2)cc1C(=O)NC1(c2ccc3c4c(cccc24)C(=O)N3C)CC1` [Compound P36] has an IC50 of less than 0.04 µM. With `Cc1ccc(N2CCC(N3CCCC3)C2)cc1C(=O)NC1(c2ccc3c4c(cccc24)C(=O)N3C)CC1` (centres unmarked) [Compound P37, 5-([1,3'-dipyrrolidin]-1'-yl)-2-methyl-N-(1-(1-methyl-2-oxo-1,2-dihydrobenzo[cd]indol-6-yl)cyclopropyl)benzamide] the IC50 was 0.04 to 0.1 µM.

Reference: patent publication EP4745124A1, “NAPHTHALIMIDE-BASED CORONAVIRUS PAPAIN-LIKE PROTEASE INHIBITOR” (Guangzhou National Laboratory, priority 2023, dated 2025)
